From patent US20240199623A1 (ILDONG PHARMACEUTICAL CO., LTD., priority 2020, published 2024)
≈ marks a conversion by molar mass, not a printed value.

What was measured:
human wild type-CFTR [1] = biological target: T1, human wild type-CFTR (Homo sapiens, UniProt P13569); assay: Cell-based YFP assay; set-up: expressed in transfected cells; host or cells: CHO-K1 (Chinese hamster ovary); conditions: CHO-K1 cells expressing human wild type-CFTR and YFP-H148Q/I152L; forskolin 20 μM = 100% activity; read-out: Cell-based YFP Assay (EC50) Concentration Range
T1 sequence (P13569 whole entry): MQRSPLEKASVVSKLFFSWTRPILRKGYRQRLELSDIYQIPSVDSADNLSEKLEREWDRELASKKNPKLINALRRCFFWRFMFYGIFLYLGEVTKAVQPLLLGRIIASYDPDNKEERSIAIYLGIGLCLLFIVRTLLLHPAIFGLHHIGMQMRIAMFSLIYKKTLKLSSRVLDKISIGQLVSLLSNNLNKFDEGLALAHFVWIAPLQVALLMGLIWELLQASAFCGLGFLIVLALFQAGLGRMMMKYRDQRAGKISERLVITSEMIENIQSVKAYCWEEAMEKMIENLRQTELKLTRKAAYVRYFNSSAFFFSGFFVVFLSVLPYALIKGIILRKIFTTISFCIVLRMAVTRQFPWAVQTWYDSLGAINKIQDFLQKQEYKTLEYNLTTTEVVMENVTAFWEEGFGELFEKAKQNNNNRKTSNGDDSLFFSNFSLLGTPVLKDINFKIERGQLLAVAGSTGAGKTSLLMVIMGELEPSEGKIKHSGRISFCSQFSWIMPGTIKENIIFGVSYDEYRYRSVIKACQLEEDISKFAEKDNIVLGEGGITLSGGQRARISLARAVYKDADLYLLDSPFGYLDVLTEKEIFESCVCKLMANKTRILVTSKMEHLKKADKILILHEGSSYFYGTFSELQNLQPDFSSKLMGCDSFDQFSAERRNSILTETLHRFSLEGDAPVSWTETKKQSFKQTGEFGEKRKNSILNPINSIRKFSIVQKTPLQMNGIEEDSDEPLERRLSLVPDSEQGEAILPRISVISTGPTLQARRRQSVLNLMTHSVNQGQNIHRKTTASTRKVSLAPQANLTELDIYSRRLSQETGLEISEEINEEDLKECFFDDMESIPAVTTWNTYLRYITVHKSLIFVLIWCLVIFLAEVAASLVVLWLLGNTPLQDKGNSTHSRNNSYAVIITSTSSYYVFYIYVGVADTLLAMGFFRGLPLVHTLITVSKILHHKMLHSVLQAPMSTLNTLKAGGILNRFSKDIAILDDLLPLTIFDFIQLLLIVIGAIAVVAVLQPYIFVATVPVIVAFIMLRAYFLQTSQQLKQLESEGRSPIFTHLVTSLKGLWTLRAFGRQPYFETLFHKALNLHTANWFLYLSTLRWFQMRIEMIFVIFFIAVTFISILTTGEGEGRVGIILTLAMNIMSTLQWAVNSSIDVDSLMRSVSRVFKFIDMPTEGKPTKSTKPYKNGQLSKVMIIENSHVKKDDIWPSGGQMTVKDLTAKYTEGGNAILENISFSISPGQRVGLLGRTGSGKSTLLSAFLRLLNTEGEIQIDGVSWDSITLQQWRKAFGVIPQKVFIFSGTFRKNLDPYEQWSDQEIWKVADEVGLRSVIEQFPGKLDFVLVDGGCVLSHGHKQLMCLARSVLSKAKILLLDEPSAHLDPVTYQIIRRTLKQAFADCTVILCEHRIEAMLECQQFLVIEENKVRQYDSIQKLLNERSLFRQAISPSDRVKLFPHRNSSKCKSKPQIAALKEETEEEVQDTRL
Outline: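 CHO-K1 cells co-expressing human wild-type CFTR and YFP-H148Q/I152L halide sensor, grown 48 h at 37 °C, then in PBS. YFP quenching by I⁻ influx read at 37 °C after adding 140 mM I⁻ solution, sampled every 0.4 s for 14 s. Triplicates averaged; EC50 fitted.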

human wild type-CFTR [2] = biological target: T1, human wild type-CFTR; assay: Short-circuit current measurement; assay type: cell-based; set-up: expressed in transfected cells; conditions: FRT cells expressing human wild type-CFTR; Forskolin 20 μM signal used as 100% activity; read-out: Short-circuit current measurement (EC50) Concentration range
Excerpt: Forskolin (Tocris cat. #1099), CFTRinh-172 (Tocris cat. #3430), amphotericin B (Tocris cat. #6930), dimethyl sulfoxide (Sigma cat. #D4540), EVC4000 Multi-Channel V/I Clamp (World Precision Instruments, Sarasota, FL), PowerLab 4/35 (AD Instruments, Castle Hill, Australia), Labchart Pro 7, GraphPad Prism 5 (GraphPad Software, Inc.). Fisher rat thyroid (FRT) cells expressing human wild type-CFTR were provided by Dr. Alan Verkman (University of California, San Francisco) and grown in DMEM/F12 medium (1:1) supplemented with 10% FBS, 2 mM glutamine, 100 units/ml penicillin and 100 μg/ml streptomycin. Snapwell inserts containing CF TR-expressing FRT cells were mounted in Ussing chambers (Physiologic Instruments, San Diego, CA). […] Forskolin, test compounds, and CFTRinh-172 were added to the apical and basolateral bath solution. Apical membrane current and short-circuit current were measured with an EVC4000 Multi-Channel V/I Clamp (World Precision Instruments, Sarasota, FL) and recorded using PowerLab 4/35 (AD Instruments, Castle Hill, Australia). Data were collected and analyzed with ADInstruments acquisition software Labchart Pro 7 software. The sampling rate was 4 Hz.

[3] = Phosphate-buffered saline (PBS) solubility of compounds; assay type: physicochemical; conditions: aqueous buffer, thermodynamic from solid, PBS pH 7.5, 0.5 mg/mL, vortexed 90 min, filtered, LC-MS/MS, read-out: Solubility Range
Method: PBS solutions (pH 7.5) were prepared according to the following compositions and stored at 4° C. Test compounds were dissolved in PBS (pH 7.5) at 0.5 mg/mL and vortexed for 90 min. The PBS solution was sequentially filtered through a 0.45, 1.2, […] syringe filter. Concentration of test compounds were determined using LC-MS/MS with appropriate dilution of the samples.

Row | Structure (SMILES) | EC50 (human wild type-CFTR [1]) [nM] | EC50 (human wild type-CFTR [2]) [nM] | solubility at 90 min [3] [µg/mL]
1 | CCOC(=O)CNC(=O)c1ccc(NC(=O)c2cc3nccc(-c4ccc(OC)c(OC)c4)n3n2)cc1 [Compound 28, ethyl (4-(7-(3,4-dimethoxyphenyl)pyrazolo [1,5-a]pyrimidine-2-carboxamido)benzoyl)glycinate] | < 200 | < 200 | < 0.1
2 | CCOC(=O)N1CCN(C(=O)c2cc3nccc(-c4ccc(OC)c(OC)c4)n3n2)CC1 [Compound 86, ethyl 4-(7-(3,4-dimethoxyphenyl)pyrazolo[1,5-a]pyrimidine-2-carbonyl) piperazine-1-carboxylate] | 200 to 2000 | ≥ 2000 | –
3 | COC(=O)c1ccc2c(c1)CCCN2C(=O)c1cc2nccc(-c3ccc(OC)c(OC)c3)n2n1 [Compound 133, methyl 1-(7-(3,4-dimethoxyphenyl)pyrazolo [1,5-a]pyrimidine-2-carbonyl)-1,2,3,4-tetrahydroquinoline-6-carboxylate] | < 200 | < 200 | < 0.1
4 | COc1ccc(-c2ccnc3cc(C(=O)Nc4ccc(OC(=O)[C@@H](NC(=O)OC(C)(C)C)C(C)C)cc4)nn23)cc1OC [Compound 200, 4-(7-(3,4-dimethoxyphenyl)pyrazolo[1,5-a]pyrimidine-2-carboxamido)phenyl(tert-butoxycarbonyl)-L-valinate] | < 200 | < 200 | –
5 | COc1ccc(-c2ccnc3cc(C(=O)Nc4ccc(C(=O)N5CCN(C)CC5)cc4Cl)nn23)cc1OC [Compound 137, N-(2-chloro-4-(4-methylpiperazine-1-carbonyl)phenyl)-7-(3,4-dimethoxyphenyl)pyrazolo [1,5-a]pyrimidine-2-carboxamide] | 200 to 2000 | 200 to 2000 | –
6 | COc1ccc(-c2ccnc3cc(C(=O)Nc4ccc(C(=O)OCCCN5CCOCC5)cn4)nn23)cc1OC [Compound 142, 3-morpholinopropyl 6-(7-(3,4-dimethoxyphenyl)pyrazolo [1,5-a]pyrimidine-2-carboxamido)nicotinate] | < 200 | < 200 | < 0.1
7 | COc1ccc(-c2ccnc3cc(C(=O)Nc4ccc(C(=O)N[C@H](C(=O)N5CCN(C)CC5)C(C)C)cc4)nn23)cc1OC [Compound 146, (S)-7-(3,4-dimethoxyphenyl)-N-(4-((3-methyl-1-(4-methylpiperazin-1-yl)-1-oxobutan-2-yl)carbamoyl)phenyl) pyrazolo[1,5-a]pyrimidine-2-carboxamide] | < 200 | < 200 | < 0.1
8 | COC(=O)c1ccc2c(c1)CCN2C(=O)c1cc2nccc(-c3ccc(OC)c(OC)c3)n2n1 [Compound 130, methyl 1-(7-(3,4-dimethoxyphenyl)pyrazolo [1,5-a]pyrimidine-2-carbonyl)indoline-5-carboxylate] | < 200 | 200 to 2000 | < 0.1
9 | COc1ccc(-c2ccnc3cc(C(=O)Nc4ccc(C(=O)O)cc4)nn23)cc1OC [Compound 14, 4-(7-(3,4-dimethoxyphenyl)pyrazolo[1,5-a]pyrimidine-2-carboxamido)benzoic acid] | 200 to 2000 | ≥ 2000 | 0.1 to 10 (≈ 0.239 to 23.9 µM)
10 | COc1ccc(-c2ccnc3cc(C(=O)Nc4ccc(C(=O)O)cn4)nn23)cc1OC [Compound 78, 6-(7-(3,4-dimethoxyphenyl)pyrazolo[1,5-a]pyrimidine-2-carboxamido) nicotinic acid] | 200 to 2000 | 200 to 2000 | –
11 | COc1ccc(-c2ccnc3cc(C(=O)Nc4ccc(N5CCC(=O)CC5)cc4)nn23)cc1OC [Compound 285, 7-(3,4-dimethoxyphenyl)-N-(4-(4-oxopiperidin-1-yl)phenyl)pyrazolo [1,5-a]pyrimidine-2-carboxamide] | < 200 | < 200 | –
12 | CCOC(=O)N1CCN(C(=O)c2cc3nccc(-c4ccc(OC)c(OC)c4)n3n2)CC1 [Compound 111, ethyl 4-(7-(3,4-dimethoxyphenyl)pyrazolo[1,5-a]pyrimidine-2-carbonyl) piperazine-1-carboxylate] | 200 to 2000 | ≥ 2000 | –
13 | COc1ccc(-c2ccnc3cc(C(=O)Nc4ccc(C(=O)O)cc4F)nn23)cc1OC [Compound 156, 4-(7-(3,4-dimethoxyphenyl)pyrazolo[1,5-a]pyrimidine-2-carboxamido)-3-fluorobenzoic acid] | < 200 | – | 0.1 to 10 (≈ 0.229 to 22.9 µM)
14 | COc1ccc(-c2ccnc3cc(C(=O)Nc4ccc(N5CCCC5)cn4)nn23)cc1OC [Compound 289, 7-(3,4-dimethoxyphenyl)-N-(5-(pyrrolidin-1-yl)pyridin-2-yl)pyrazolo[1,5-a]pyrimidine-2-carboxamide] | < 200 | < 200 | –
15 | COc1ccc(-c2ccnc3cc(C(=O)Nc4ccc(C(N)=O)cc4)nn23)cc1OC [Compound 48, N-(4-carbamoylphenyl)-7-(3,4-dimethoxyphenyl)pyrazolo [1,5-a]pyrimidine-2-carboxamide] | < 200 | – | < 0.1
16 | COc1ccc(-c2ccnc3cc(C(=O)Nc4ccc(C(=O)OCCCN5CCOCC5)c(F)c4)nn23)cc1OC [Compound 163, 3-morpholinopropyl 4-(7-(3,4-dimethoxyphenyl)pyrazolo [1,5-a]pyrimidine-2-carboxamido)-2-fluorobenzoate] | 200 to 2000 | – | < 0.1
17 | COc1ccc(-c2ccnc3cc(C(=O)Nc4ccc(N5CCN(C)CC5)cn4)nn23)cc1OC [Compound 204, 7-(3,4-dimethoxyphenyl)-N-(5-(4-methylpiperazin-1-yl)pyridin-2-yl)pyrazolo[1,5-a]pyrimidine-2-carboxamide] | < 200 | – | < 0.1
18 | CCOC(=O)COc1ccc(NC(=O)c2cc3nccc(-c4ccc(OC)c(OC)c4)n3n2)cc1 [Compound 34, ethyl 2-(4-(7-(3,4-dimethoxyphenyl)pyrazolo [1,5-a]pyrimidine-2-carboxamido)phenoxy) acetate] | < 200 | – | < 0.1
19 | COC(=O)C1CN(C(=O)c2ccc(NC(=O)c3cc4nccc(-c5ccc(OC)c(OC)c5)n4n3)cc2)C1 [Compound 65, methyl 1-(4-(7-(3,4-dimethoxyphenyl)pyrazolo[1,5-a]pyrimidine-2-carboxamido)benzoyl) azetidine-3-carboxylate] | < 200 | – | < 0.1
20 | COc1ccc(-c2ccnc3cc(C(=O)Nc4ccc(NC(=O)[C@H](C)NC(=O)OC(C)(C)C)cc4)nn23)cc1OC [Compound 281] | < 200 | – | < 0.1
21 | COc1ccc(-c2ccnc3cc(C(=O)Nc4ccc(C(=O)N5CCN(C)CC5)c(O)c4)nn23)cc1OC [Compound 170, 7-(3,4-dimethoxyphenyl)-N-(3-hydroxy-4-(4-methylpiperazine-1-carbonyl)phenyl)pyrazolo [1,5-a]pyrimidine-2-carboxamide] | < 200 | – | 0.1 to 10 (≈ 0.194 to 19.4 µM)
22 | COC(=O)[C@H](CC(C)C)NC(=O)c1ccc(NC(=O)c2cc3nccc(-c4ccc(OC)c(OC)c4)n3n2)cc1 [Compound 57, methyl (4-(7-(3,4-dimethoxyphenyl)pyrazolo [1,5-a]pyrimidine-2-carboxamido)benzoyl)-L-leucinate] | < 200 | – | < 0.1
23 | COc1ccc(-c2ccnc3cc(C(=O)Nc4cccc(C(=O)O)c4)nn23)cc1OC [Compound 16, 3-(7-(3,4-dimethoxyphenyl)pyrazolo[1,5-a]pyrimidine-2-carboxamido)benzoic acid] | ≥ 2000 | – | > 10
24 | COC(=O)c1ccc(NC(=O)c2cc3nccc(-c4ccc(OC)c(OC)c4)n3n2)c(C)c1 [Compound 125, methyl 4-(7-(3,4-dimethoxyphenyl)pyrazolo [1,5-a]pyrimidine-2-carboxamido)-3-methylbenzoate] | < 200 | – | < 0.1
25 | COc1ccc(-c2ccnc3cc(C(=O)NC4CCN(C(=O)OC(C)(C)C)CC4)nn23)cc1OC [Compound 63, tert-butyl 4-(7-(3,4-dimethoxyphenyl)pyrazolo[1,5-a]pyrimidine-2-carboxamido)piperidine-1-carboxylate] | 200 to 2000 | – | 0.1 to 10 (≈ 0.208 to 20.8 µM)
26 | COc1ccc(-c2ccnc3cc(C(=O)Nc4ccc(C(=O)NCCN5CCN(C)CC5)cc4)nn23)cc1OC [Compound 178, 7-(3,4-dimethoxyphenyl)-N-(4-((2-(4-methylpiperazin-1-yl)ethyl)carbamoyl)phenyl)pyrazolo[1,5-a]pyrimidine-2-carboxamide] | 200 to 2000 | – | > 10
